Laboratory results from PMC5428333, “Novel protein acetyltransferase, Rv2170, modulates carbon and energy metabolism in Mycobacterium tuberculosis” (Scientific Reports, 2017).

What was measured:
Rv2170 [1] = target: T1, Rv2170 (Mycobacterium tuberculosis, UniProt O53504)
Rv2170 [2] = target: T1, Rv2170; remark: listed apart in the source

T1 sequence (O53504 whole entry): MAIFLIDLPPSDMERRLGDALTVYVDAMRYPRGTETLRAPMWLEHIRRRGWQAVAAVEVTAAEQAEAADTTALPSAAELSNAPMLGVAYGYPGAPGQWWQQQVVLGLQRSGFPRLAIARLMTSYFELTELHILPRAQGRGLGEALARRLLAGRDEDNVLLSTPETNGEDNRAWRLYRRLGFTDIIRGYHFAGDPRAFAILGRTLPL

Compound | DTNB assay of free CoA at 412 nm; also 14C transfer to ICDH1 by SDS-PAGE and pho (Rv2170 [1]) | 14C transfer to ICDH1, SDS-PAGE and phosphorimaging (Rv2170 [2])
CC(=O)SCCNC(=O)CCNC(=O)[C@H](O)C(C)(C)COP(=O)(O)OP(=O)(O)OC[C@H]1O[C@@H](n2cnc3c(N)ncnc32)[C@H](O)[C@@H]1OP(=O)(O)O [acetyl-CoA] | sigmoidal response in kinetic analysis of Rv2170 when the concentration of acetyl-CoA was increased | –
CCC(=O)SCCNC(=O)CCNC(=O)[C@H](O)C(C)(C)COP(=O)(O)OP(=O)(O)OC[C@H]1O[C@@H](n2cnc3c(N)ncnc32)[C@H](O)[C@@H]1OP(=O)(O)O [propionyl-CoA] | – | Rv2170 is also capable of modifying ICDH1 with the succinyl-CoA and propionyl-CoA donors
